# PubChem BioAssay (NCI)
#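 GI50: concentration for 50% inhibition of growth. TGI marks complete inhibition of growth.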
# Legend:
# Assay in all cases: NCI-60 cell line screen, 384-well format
# ACHN renal = test system: ACHN renal
# CCRF-CEM leukemia = test system: CCRF-CEM leukemia
# HL-60(TB) leukemia = test system: HL-60(TB) leukemia
# HS 578T breast = test system: HS 578T breast
# MDA-MB-468 breast = test system: MDA-MB-468 breast
# NCI-H226 lung = test system: NCI-H226 lung
# NCI-H23 lung = test system: NCI-H23 lung
# NCI-H460 NSCLC = test system: NCI-H460 NSCLC
# OVCAR-4 ovarian = test system: OVCAR-4 ovarian
# OVCAR-5 ovarian = test system: OVCAR-5 ovarian
# PC-3 prostate = test system: PC-3 prostate
# RXF 393 renal = test system: RXF 393 renal
# SW-620 colon = test system: SW-620 colon
compound,measurement,setting,value
O=C(Nc1cccc(NS(=O)(=O)c2ccc(F)cc2)c1)c1ccc(-c2ccccc2)cc1,GI50,ACHN renal,4.13 µM
same,TGI,ACHN renal,21.6 µM
same,GI50,CCRF-CEM leukemia,2.33 µM
same,TGI,CCRF-CEM leukemia,5.8 µM
same,GI50,HL-60(TB) leukemia,1.73 µM
same,TGI,HL-60(TB) leukemia,3.46 µM
same,GI50,HS 578T breast,3.7 µM
same,TGI,HS 578T breast,15.3 µM
same,GI50,MDA-MB-468 breast,3.1 µM
same,TGI,MDA-MB-468 breast,8.43 µM
same,GI50,NCI-H226 lung,5.91 µM
same,TGI,NCI-H226 lung,20.7 µM
same,GI50,NCI-H23 lung,2.53 µM
same,TGI,NCI-H23 lung,8.44 µM
same,GI50,NCI-H460 NSCLC,3.23 µM
same,TGI,NCI-H460 NSCLC,10.4 µM
same,GI50,OVCAR-4 ovarian,3.85 µM
same,TGI,OVCAR-4 ovarian,18.2 µM
same,GI50,OVCAR-5 ovarian,7.57 µM
same,TGI,OVCAR-5 ovarian,26.7 µM
same,GI50,PC-3 prostate,3.36 µM
same,TGI,PC-3 prostate,11.5 µM
same,GI50,RXF 393 renal,2.02 µM
same,TGI,RXF 393 renal,4.91 µM
same,GI50,SW-620 colon,4.54 µM
same,TGI,SW-620 colon,16.2 µM
